From ChEMBL document CHEMBL1143311, “Structure-activity relationship and studies on the molecular mechanism of leishmanicidal N,C-coupled arylisoquinolinium salts” (J Med Chem, 2009) come the findings set out here.

One series has as its target Cytochrome P450 2C19 (Homo sapiens, UniProt P33261). The series can be described thus: Inhibition of human CYP2C19 at 100 uM by LC/ESI-MS analysis. The format is ADME.
Series [1] is described as follows: Ratio of IC50 for BALB/c mouse peritoneal macrophages to EC50 for Leishmania major MHOM/IL/81/FE/BNI promastigotes.
The subject of series [2] is Macrophage. The series can be described thus: Decrease in IL10 secretion in IFN-gamma-stimulated BALB/c mouse peritoneal macrophages infected with Leishmania major MHOM/IL/81/FE/BNI promastigotes at 3 uM after 24 hrs by sandwich ELISA. The format is functional, cell-based. (In general: An ELISA detects its analyte on a solid surface through an enzyme-linked reagent.)

Series [3] is described as follows: Selectivity index, ratio of IC50 for mouse J774.1 cells to IC50 for Leishmania major MHOM/IL/81/FE/BNI promastigotes. Format: toxicity. Particulars: J774.1 cells, read-out: Ratio IC50.
Series [4] is described as follows: Cytotoxicity against mouse NIH/3T3 after 48 hrs by alamar blue assay. The format is cell-based. Particulars: NIH3T3, 48 h. (In general: The colour change of resazurin is a common sign of viable cells or microbes.)
The test system of series [5] is Macrophage. Kind of series: Reduction of IL6 production in LPS-stimulated BALB/c mouse peritoneal macrophages infected with Leishmania major MHOM/IL/81/FE/BNI promastigotes at 3 uM after 24 hrs by sandwich ELISA. The format is functional, cell-based.
Series [6] relates to Macrophage. Kind of series: Decrease in IL10 secretion in LPS-stimulated BALB/c mouse peritoneal macrophages infected with Leishmania major MHOM/IL/81/FE/BNI promastigotes at 3 uM after 24 hrs by sandwich ELISA. Format: functional, cell-based.
Series [7] in a line: Cytotoxicity against BALB/c mouse DC after 48 hrs by alamar blue assay.
In series [8] the test system is Leishmania major. The series can be described thus: Antileishmanial activity against Leishmania major MHOM/IL/81/FE/BNI promastigotes by alamar blue assay. The format is functional, organism-based. The settings on record: Leishmania major.
The test system of series [9] is Macrophage. The series can be described thus: Reduction of IL6 production in IFN-gamma-stimulated BALB/c mouse peritoneal macrophages infected with Leishmania major MHOM/IL/81/FE/BNI promastigotes at 3 uM after 24 hrs by sandwich ELISA. The format is functional, cell-based.
Series [10] deals with T1, Cytochrome P450 2D6 (Homo sapiens, UniProt P10635). Kind of series: Inhibition of human CYP2D6 at 1 to 100 uM by LC/ESI-MS analysis. The format is ADME.
Series [11] concerns Leishmania major. Kind of series: Antileishmanial activity against Leishmania major MHOM/IL/81/FE/BNI promastigotes infected in BALB/c mouse peritoneal macrophages assessed as decrease in infection rate after 48 hrs by fluorescence microscopy in presence of interferon-gamma. The format is functional, organism-based.
Another series has as its target Cytochrome P450 3A4 (Homo sapiens, UniProt P08684). The series can be described thus: Inhibition of human CYP3A4 at 100 uM by LC/ESI-MS analysis. The format is ADME.
Another series has as its target Albumin (Bos taurus, UniProt P02769). Kind of series: Binding affinity to bovine serum albumin by ultrafiltration method. Format: ADME. Particulars: cattle; for fraction unbound: bovine serum albumin, read-out: PPB (converted).
The test system of series [12] is Macrophage. The series can be described thus: Increase in nitric oxide production in LPS-stimulated BALB/c mouse peritoneal macrophages infected with Leishmania major MHOM/IL/81/FE/BNI promastigotes at 3 uM after 48 hrs by […]. Format: functional, cell-based.
A short description of series [13]: Antiproliferative activity against mouse J774.1 cells after 48 hrs by alamar blue assay. Particulars: Mus musculus, J774.1, 48 h. Format: cell-based.
Another series concerns the target Cytochrome P450 2C9 (Homo sapiens, UniProt P11712). The series can be described thus: Inhibition of human CYP2C9 at 100 uM by LC/ESI-MS analysis. Format: ADME.
Series [14] concerns Leishmania major. Kind of series: Antileishmanial activity against Leishmania major MHOM/IL/81/FE/BNI promastigotes infected in BALB/c mouse peritoneal macrophages assessed as decrease in infection rate after 48 hrs by fluorescence microscopy. Format: functional, organism-based.
Series [15] deals with Macrophage. Kind of series: Reduction of TNFalpha production in IFN-gamma-stimulated BALB/c mouse peritoneal macrophages infected with Leishmania major MHOM/IL/81/FE/BNI promastigotes at 3 uM after 24 hrs by sandwich ELISA. The format is functional, cell-based.
The nature of series [16]: Cytotoxicity against BALB/c mouse peritoneal macrophages after 48 hrs by alamar blue assay. The format is cell-based. The settings on record: Macrophage.
In series [17] the target is T1, Cytochrome P450 2D6. The series can be described thus: Inhibition of human CYP2D6 by Lineweaver-Burke plot. The format is ADME.
Series [18] addresses T1, Cytochrome P450 2D6. The series can be described thus: Inhibition of human CYP2D6 expressed in baculovirus-infected insect cell system. The format is ADME.
Series [19] concerns Macrophage. Kind of series: Reduction of TNFalpha production in LPS-stimulated BALB/c mouse peritoneal macrophages infected with Leishmania major MHOM/IL/81/FE/BNI promastigotes at 3 uM after 24 hrs by sandwich ELISA. The format is functional, cell-based.
Series [20] relates to Macrophage. The series can be described thus: Increase in nitric oxide production in BALB/c mouse peritoneal macrophages infected with Leishmania major MHOM/IL/81/FE/BNI promastigotes at 3 uM after 48 hrs by […] relative to noninfected cells. Format: functional.
Series [21] deals with Macrophage. The series can be described thus: Increase in TGFbeta secretion in IFN-gamma-stimulated BALB/c mouse peritoneal macrophages infected with Leishmania major MHOM/IL/81/FE/BNI promastigotes at 3 uM after 24 hrs by sandwich ELISA. The format is functional, cell-based.
Series [22] deals with Macrophage. Kind of series: Increase in nitric oxide production in IFN-gamma-stimulated BALB/c mouse peritoneal macrophages infected with Leishmania major MHOM/IL/81/FE/BNI promastigotes at 3 uM after 48 hrs by […] relative to noninfected cells. The format is functional.
Series [23] relates to Macrophage. The series can be described thus: Increase in TGFbeta secretion in BALB/c mouse peritoneal macrophages infected with Leishmania major MHOM/IL/81/FE/BNI promastigotes at 3 uM after 24 hrs by sandwich ELISA. Format: functional, cell-based.

Calls of active or inactive are those of the source. The calls are words filed in the database; no cut-off is given here.

T1 sequence (P10635 whole entry): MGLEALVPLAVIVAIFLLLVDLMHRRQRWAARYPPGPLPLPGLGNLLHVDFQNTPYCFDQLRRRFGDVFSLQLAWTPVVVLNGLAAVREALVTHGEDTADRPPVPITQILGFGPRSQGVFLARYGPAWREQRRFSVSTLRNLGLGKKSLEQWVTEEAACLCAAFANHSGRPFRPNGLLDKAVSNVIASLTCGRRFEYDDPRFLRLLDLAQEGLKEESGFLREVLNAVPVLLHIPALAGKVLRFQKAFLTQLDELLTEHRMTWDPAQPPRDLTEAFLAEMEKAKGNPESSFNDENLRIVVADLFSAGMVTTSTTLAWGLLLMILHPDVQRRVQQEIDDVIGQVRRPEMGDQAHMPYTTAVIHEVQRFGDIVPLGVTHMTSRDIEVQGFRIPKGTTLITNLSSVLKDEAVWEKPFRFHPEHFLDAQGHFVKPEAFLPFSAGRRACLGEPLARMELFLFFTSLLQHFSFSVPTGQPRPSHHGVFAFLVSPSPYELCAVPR
Cytochrome P450 3A4, sequence (P08684 whole entry): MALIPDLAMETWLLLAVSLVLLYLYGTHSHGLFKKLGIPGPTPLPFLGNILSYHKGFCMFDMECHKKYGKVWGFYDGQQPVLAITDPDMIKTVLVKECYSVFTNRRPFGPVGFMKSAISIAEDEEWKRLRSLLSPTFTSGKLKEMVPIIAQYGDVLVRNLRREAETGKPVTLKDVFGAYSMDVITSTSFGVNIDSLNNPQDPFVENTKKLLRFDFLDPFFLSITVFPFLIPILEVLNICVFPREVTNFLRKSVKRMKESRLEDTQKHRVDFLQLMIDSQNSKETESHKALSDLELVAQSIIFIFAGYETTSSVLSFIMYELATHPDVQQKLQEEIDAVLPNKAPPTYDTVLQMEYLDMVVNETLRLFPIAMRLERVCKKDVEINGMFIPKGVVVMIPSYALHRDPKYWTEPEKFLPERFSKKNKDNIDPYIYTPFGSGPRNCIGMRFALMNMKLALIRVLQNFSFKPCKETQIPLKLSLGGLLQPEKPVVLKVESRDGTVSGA
Cytochrome P450 2C9, sequence (P11712 whole entry): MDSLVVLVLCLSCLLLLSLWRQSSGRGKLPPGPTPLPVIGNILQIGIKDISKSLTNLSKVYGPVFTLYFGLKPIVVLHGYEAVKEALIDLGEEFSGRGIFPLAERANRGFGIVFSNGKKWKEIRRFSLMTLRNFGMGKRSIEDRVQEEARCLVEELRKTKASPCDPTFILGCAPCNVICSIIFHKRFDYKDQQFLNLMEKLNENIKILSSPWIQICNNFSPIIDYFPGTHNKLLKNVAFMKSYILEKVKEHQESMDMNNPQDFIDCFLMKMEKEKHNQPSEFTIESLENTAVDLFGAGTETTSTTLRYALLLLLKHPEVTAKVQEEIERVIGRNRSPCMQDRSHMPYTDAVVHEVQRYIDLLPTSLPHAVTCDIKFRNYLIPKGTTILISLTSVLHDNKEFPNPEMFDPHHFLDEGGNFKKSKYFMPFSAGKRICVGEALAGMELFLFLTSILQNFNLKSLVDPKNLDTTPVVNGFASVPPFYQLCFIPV
Cytochrome P450 2C19, sequence (P33261 whole entry): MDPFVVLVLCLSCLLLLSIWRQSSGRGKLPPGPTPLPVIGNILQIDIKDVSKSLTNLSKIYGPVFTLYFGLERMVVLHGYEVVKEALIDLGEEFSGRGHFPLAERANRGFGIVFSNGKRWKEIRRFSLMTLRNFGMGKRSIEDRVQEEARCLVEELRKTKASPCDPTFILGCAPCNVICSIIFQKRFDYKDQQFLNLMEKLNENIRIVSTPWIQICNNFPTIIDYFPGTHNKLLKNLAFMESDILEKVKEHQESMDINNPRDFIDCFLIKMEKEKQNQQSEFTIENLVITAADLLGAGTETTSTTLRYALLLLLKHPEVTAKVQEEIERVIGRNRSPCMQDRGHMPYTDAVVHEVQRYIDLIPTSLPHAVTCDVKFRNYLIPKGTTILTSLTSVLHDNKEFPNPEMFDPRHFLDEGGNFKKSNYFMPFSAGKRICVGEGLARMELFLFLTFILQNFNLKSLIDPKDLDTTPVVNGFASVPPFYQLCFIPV
Albumin, sequence (P02769 whole entry): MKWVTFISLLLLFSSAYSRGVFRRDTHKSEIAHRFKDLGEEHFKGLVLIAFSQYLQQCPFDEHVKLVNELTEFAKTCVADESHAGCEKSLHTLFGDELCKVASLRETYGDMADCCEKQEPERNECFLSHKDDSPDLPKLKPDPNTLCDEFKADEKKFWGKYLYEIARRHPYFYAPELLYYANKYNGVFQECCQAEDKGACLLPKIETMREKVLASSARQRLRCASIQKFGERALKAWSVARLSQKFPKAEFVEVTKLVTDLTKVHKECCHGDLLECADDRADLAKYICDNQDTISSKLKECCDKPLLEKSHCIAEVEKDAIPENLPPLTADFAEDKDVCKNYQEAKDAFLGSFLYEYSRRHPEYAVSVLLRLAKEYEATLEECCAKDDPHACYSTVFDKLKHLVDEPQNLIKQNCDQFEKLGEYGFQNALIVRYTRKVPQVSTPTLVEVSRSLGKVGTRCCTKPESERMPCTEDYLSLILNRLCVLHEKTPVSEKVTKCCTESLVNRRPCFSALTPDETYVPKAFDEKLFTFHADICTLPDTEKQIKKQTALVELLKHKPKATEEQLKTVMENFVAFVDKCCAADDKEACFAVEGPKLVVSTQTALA

For the compound `COc1cc(OC)c2c(C)[n+](-c3c(C)cccc3C)c(C)cc2c1.F[B-](F)(F)F`, the Activity entry on Cytochrome P450 2C19 is “Active”; at Cytochrome P450 2D6 [10], “Not Active”; at Cytochrome P450 3A4, “Active”; on Cytochrome P450 2C9, “Active”. The “Ratio IC50/EC50” value in series [1] is listed as 40. Moreover, the outcome in the series on Macrophage [2], in the series with Macrophage [5], in the series on Macrophage [6], with Macrophage [9], in the series on Leishmania major [11] and with Macrophage [15] was Active. For the same compound, the selectivity ratio in series [3] is 7.82. In addition, the 50% inhibitory concentration (IC50) (in general, the concentration at which inhibition is half-maximal) worked out at 37.6 µM in series [4]; 8.76 µM in series [7]; 3.49 µM in the series with Leishmania major [8]; 27.3 µM in [13]; 9.67 µM in [16]. For the same compound, the fraction unbound on Albumin is 0.538. Moreover, the result in the series on Macrophage [12] was inactive. The EC50 (in general, the concentration that produces a half-maximal response) in the series with Leishmania major [14] stood at 0.241 µM.
On to `COc1cc(OC)c2c(C)[n+](-c3ccc(C)cc3)c(C)cc2c1.F[B-](F)(F)F`, for which the outcome at Cytochrome P450 2C19, at Cytochrome P450 2D6 [10], at Cytochrome P450 3A4 and at Cytochrome P450 2C9 was Active. Besides, the Ki (as a rule, the dissociation constant of the complex between target and ligand, obtained from inhibition or displacement) on Cytochrome P450 2D6 [17] is 0.0281 µM. For the same compound, the “Ratio IC50/EC50” value in [1] is 138. For the same compound, the result in the series on Macrophage [2], in the series on Macrophage [6] and in the series on Macrophage [12] was inactive. Also, the selectivity ratio in [3] came out at 5.55. For the same compound, the concentration for half-maximal inhibition (IC50) in series [4] is 49.8 µM; against Cytochrome P450 2D6 [18], 0.0561 µM; in [7] it was 24 µM; with Leishmania major [8], 2.64 µM; in series [13] it was 14.6 µM; in series [16], 12.8 µM. Moreover, the result in the series on Macrophage [5], in the series on Macrophage [9], in the series on Leishmania major [11], with Macrophage [19] and in the series on Macrophage [15] was Active. The fraction unbound on Albumin was 0.441. Besides, the 50% effective concentration (EC50) in the series on Leishmania major [14] was determined as 0.092 µM.
As to `COc1cc(OC)c2c(C)[n+](-c3ccc(C(C)C)cc3)c(C)cc2c1.O=C([O-])C(F)(F)F`, the Activity result is listed as “Not Active” at Cytochrome P450 2C19, “Active” on Cytochrome P450 2D6 [10], “Not Active” on Cytochrome P450 3A4 and “Not Active” at Cytochrome P450 2C9. Also, the “fold change (FC)” value is reported as 2.7 in the series with Macrophage [20] and 3 in the series on Macrophage [22]. In addition, the Ki at Cytochrome P450 2D6 [17] stood at 0.0547 µM. In addition, the “Ratio IC50/EC50” value in series [1] was determined as 56. The result in the series on Macrophage [2], in the series on Macrophage [21], in the series with Macrophage [5], with Macrophage [6], in the series with Macrophage [9] and with Leishmania major [11] was Active. Moreover, the outcome in the series on Macrophage [23] and with Macrophage [15] was Active. The selectivity ratio in series [3] is 6.55. The IC50 is 11.1 µM in series [4]; 0.109 µM at Cytochrome P450 2D6 [18]; 7.6 µM in series [7]; 2 µM in the series with Leishmania major [8]; 13.1 µM in [13]; 8.81 µM in series [16]. Moreover, at Albumin, the fraction unbound is 0.297. In addition, the outcome in the series on Macrophage [12] was inactive. In the series on Leishmania major [14], the EC50 was determined as 0.158 µM.
For `COc1cc(OC)c2c(C)[n+](-c3cccc4ccccc34)c(C)cc2c1.[O-][Cl+3]([O-])([O-])[O-]`, the result on Cytochrome P450 2C19, on Cytochrome P450 2D6 [10], on Cytochrome P450 3A4, at Albumin (isolated protein) and on Cytochrome P450 2C9 was Active. In addition, at Cytochrome P450 2D6 [17], the Ki was 0.45 µM. In addition, the concentration for half-maximal inhibition (IC50) at Cytochrome P450 2D6 [18] is 0.9 µM.
With `COc1cc(OC)c2c(C)[n+](-c3cccc4ccccc34)c(C)cc2c1`, the result with Macrophage [2], in the series on Macrophage [6] and in the series with Macrophage [12] was inactive. In addition, the result with Macrophage [21], in the series with Macrophage [5], in the series with Macrophage [9], in the series on Macrophage [23], in the series with Macrophage [19] and in the series with Macrophage [15] was Active.
